Legend:
Type in all cases: physicochemical
[1] = Stability of the amorphous solid form by DSC; settings: for solid form stability by DSC: DSC technique
Protocol: Samples 1C and 1A were characterised by the differential scanning calorimetry (DSC) technique. […] The amorphous solid sample 1A according to the present invention presented a first exothermic transition (corresponding to a formation of crystalline form) at temperatures of between 50 and 90° C., and subsequently at 128° C., the endothermic transition corresponding to melting of the crystalline form that formed at lower temperatures.
Sample 1A was stored for 12 months at room temperature and subjected to a second DSC measurement. Its appearance was still that of a white powder.

[2] = Dissolution rate test in caprylic/capric triglyceride; settings: 4.0 g powder in 96.0 g caprylic/capric triglyceride, stirring, 25° C., visual inspection
Protocol: (§1) Description of dissolution rate test. 4.0 g of powder was dispersed under stirring in 96.0 g of caprylic/capric triglyceride solvent at 25° C. The total dissolution time was measured, with visual inspection, noting the time of complete disappearance of any heterogeneity in the form of particles or opalescence in the solution.

[3] = Dissolution rate test in octyl dodecanol; settings: 4.0 g powder in 96.0 g octyl dodecanol, stirring, 25° C., visual inspection
Protocol: as §1, with “octyl dodecanol” for “caprylic/capric triglyceride”

[4] = Dissolution rate test in ethylhexyl stearate; settings: 4.0 g powder in 96.0 g ethylhexyl stearate, stirring, 25° C., visual inspection
Protocol: as §1, with “ethylhexyl stearate” for “caprylic/capric triglyceride”

solid form stability by DSC [1]	dissolution time [2]	Compound	dissolution time [3]	DSC curve after storage (stability of amorphous form) ([1]; stored for 12 months at room temperature, second DSC measurement)	dissolution time [4]
stable amorphous form	15 min	CCCCC(CC)COC(=O)c1ccc(Nc2nc(Nc3ccc(C(=O)OCC(CC)CCCC)cc3)nc(Nc3ccc(C(=O)OCC(CC)CCCC)cc3)n2)cc1 (stereo not drawn) [Sample 3A]	–	–	–
–	over 90 minutes	CCCCC(CC)COC(=O)c1ccc(Nc2nc(Nc3ccc(C(=O)OCC(CC)CCCC)cc3)nc(Nc3ccc(C(=O)OCC(CC)CCCC)cc3)n2)cc1 (stereo not drawn) [Sample 2C, reference compound]	–	–	–
–	15 min	CCCCC(CC)COC(=O)c1ccc(Nc2nc(Nc3ccc(C(=O)OCC(CC)CCCC)cc3)nc(Nc3ccc(C(=O)OCC(CC)CCCC)cc3)n2)cc1 (stereo not drawn) [Sample 1A]	90 min	identical to the curve obtained a year earlier	40 min
stable amorphous form	15 min	CCCCC(CC)COC(=O)c1ccc(Nc2nc(Nc3ccc(C(=O)OCC(CC)CCCC)cc3)nc(Nc3ccc(C(=O)OCC(CC)CCCC)cc3)n2)cc1 (stereo not drawn) [Sample 2A]	–	–	–
–	over 90 minutes	CCCCC(CC)COC(=O)c1ccc(Nc2nc(Nc3ccc(C(=O)OCC(CC)CCCC)cc3)nc(Nc3ccc(C(=O)OCC(CC)CCCC)cc3)n2)cc1 (stereo not drawn) [Sample 1C, reference compound]	over 420 minutes (insoluble-opaque white dispersion)	–	over 420 minutes (opaque white dispersion)

From patent US20140147397A1, “STABLE AMORPHOUS SOLID FORM OF A TRIAZINE DERIVATIVE AND THE CORRESPONDING MANUFACTURING PROCESS” (3V SIGMA S.P.A., priority 2012, published 2014)
